In patent US10800785B2, “Substituted pyrrolo[2,3-d]pyridazin-4-ones and pyrazolo[3,4-d]pyridazin-4-ones as protein kinase inhibitors” (Shanghai Fochon Pharmaceutical Co., Ltd., priority 2016, dated 2020) one finds IC50 data, which are given here for nine compounds.

The assay concerns DOHH2 cells. Put plainly: Cell proliferation assay (MTS) in DOHH2 cells, mechanism-based assay for BTK inhibition. The note with it: Homo sapiens, DOHH-2, 120 h incubation, 5000 cells/well. The method in brief: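 DOHH2 cells (5000/well) were plated in RPMI-1640 with 10% FBS, left overnight, then exposed 120 h at 37° C, 5% CO2 to compound at 1.5–10000 nM final (nine levels). Proliferation was read by MTS, incubated exactly 2 h and stopped with SDS, as a measure of cellular BTK inhibition.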
The IC50 is the concentration that gives 50% inhibition. Low values mean greater potency in that assay, high ones weaker potency in that assay. Compound `CN(C)C/C=C/C(=O)N1CC[C@@H](c2cn(-c3ccc(Oc4ccccc4)cc3)c3c(N)n[nH]c(=O)c23)C1` [Example 93, (S,E)-7-amino-3-(1-(4-(dimethylamino)but-2-enoyl)pyrrolidin-3-yl)-1-(4-phenoxyphenyl)-1,5-dihydro-4H-pyrrolo[2,3-d]pyridazin-4-one] yielded an IC50 of 239 nM. For the compound `C=CC(=O)N1CCC[C@@H](c2nn(-c3ccc(Oc4ccccc4)cc3)c3c(N)n[nH]c(=O)c23)C1` [Example 15, (R)-3-(1-acryloylpiperidin-3-yl)-7-amino-1-(4-phenoxyphenyl)-1,5-dihydro-4H-pyrazolo[3,4-d]pyridazin-4-one], the IC50 was 40 nM. Under `CC#CC(=O)N1CC[C@H](c2cn(-c3ccc(Oc4c(F)cccc4F)cc3)c3c(N)n[nH]c(=O)c23)C1` [Example 84, (R)-7-amino-3-(1-(but-2-ynoyl)pyrrolidin-3-yl)-1-(4-(2,6-difluorophenoxy)phenyl)-1,5-dihydro-4H-pyrrolo[2,3-d]pyridazin-4-one] stands 369 nM; under `C=CC(=O)N1CC[C@H](c2nn(-c3ccc(Oc4c(F)cccc4F)cc3)c3c(N)n[nH]c(=O)c23)C1` [Example 51, (S)-3-(1-acryloylpyrrolidin-3-yl)-7-amino-1-(4-(2,6-difluorophenoxy)phenyl)-1,5-dihydro-4H-pyrazolo[3,4-d]pyridazin-4-one], 215 nM; under `C=CC(=O)N1CC(c2cn(-c3ccc(Oc4ccccc4F)cc3)c3c(N)n[nH]c(=O)c23)C1` [Example 111, 3-(1-acryloylazetidin-3-yl)-7-amino-1-(4-(2-fluorophenoxy)phenyl)-1,5-dihydro-4H-pyrrolo [2,3-d]pyridazin-4-one], 261 nM. To `C=CC(=O)N1CCC[C@@H](c2nn(-c3ccc(Oc4ccccc4F)cc3)c3c(N)n[nH]c(=O)c23)C1` [Example 53, (R)-3-(1-acryloylpiperidin-3-yl)-7-amino-1-(4-(2-fluorophenoxy)phenyl)-1,5-dihydro-4H-pyrazolo[3,4-d]pyridazin-4-one] belongs 196 nM. To `C=CC(=O)N1CC[C@@H](c2cn(-c3ccc(Oc4cc(F)cc(F)c4)cc3)c3c(N)n[nH]c(=O)c23)C1` [Example 22, (S)-3-(1-acryloylpyrrolidin-3-yl)-7-amino-1-(4-(3,5-difluorophenoxy)phenyl)-1,5-dihydro-4H-pyrrolo[2,3-d]pyridazin-4-one] belongs 86 nM; to `C=CC(=O)N1CC[C@@H](c2nn(-c3ccc(C(=O)Nc4ccccn4)cc3)c3c(N)n[nH]c(=O)c23)C1` [Example 90, (R)-4-(3-(1-acryloylpyrrolidin-3-yl)-7-amino-4-oxo-4,5-dihydro-1H-pyrazolo[3,4-d]pyridazin-1-yl)-N-(pyridin-2-yl)benzamide], 580 nM.

`C=CC(=O)N1CCC(c2nn(-c3ccc(Oc4c(F)cccc4F)cc3)c3c(N)n[nH]c(=O)c23)C1` (stereo not drawn) [Example 7, 3-(1-acryloylpyrrolidin-3-yl)-7-amino-1-(4-(2,6-difluorophenoxy)phenyl)-1,5-dihydro-4H-pyrazolo[3,4-d]pyridazin-4-one] yielded an IC50 of 182 nM.
